The target of one test is T1, RIG-I (Homo sapiens, UniProt O95786).
T1 construct: Recombinant full-length human RIG-I or RIG-I single amino acid mutants (1–925, N-terminal His-tag); made in house; host or cells: High Five (Trichoplusia ni) insect cells, baculovirus, pFBDM vector
T1 sequence (O95786 1-925): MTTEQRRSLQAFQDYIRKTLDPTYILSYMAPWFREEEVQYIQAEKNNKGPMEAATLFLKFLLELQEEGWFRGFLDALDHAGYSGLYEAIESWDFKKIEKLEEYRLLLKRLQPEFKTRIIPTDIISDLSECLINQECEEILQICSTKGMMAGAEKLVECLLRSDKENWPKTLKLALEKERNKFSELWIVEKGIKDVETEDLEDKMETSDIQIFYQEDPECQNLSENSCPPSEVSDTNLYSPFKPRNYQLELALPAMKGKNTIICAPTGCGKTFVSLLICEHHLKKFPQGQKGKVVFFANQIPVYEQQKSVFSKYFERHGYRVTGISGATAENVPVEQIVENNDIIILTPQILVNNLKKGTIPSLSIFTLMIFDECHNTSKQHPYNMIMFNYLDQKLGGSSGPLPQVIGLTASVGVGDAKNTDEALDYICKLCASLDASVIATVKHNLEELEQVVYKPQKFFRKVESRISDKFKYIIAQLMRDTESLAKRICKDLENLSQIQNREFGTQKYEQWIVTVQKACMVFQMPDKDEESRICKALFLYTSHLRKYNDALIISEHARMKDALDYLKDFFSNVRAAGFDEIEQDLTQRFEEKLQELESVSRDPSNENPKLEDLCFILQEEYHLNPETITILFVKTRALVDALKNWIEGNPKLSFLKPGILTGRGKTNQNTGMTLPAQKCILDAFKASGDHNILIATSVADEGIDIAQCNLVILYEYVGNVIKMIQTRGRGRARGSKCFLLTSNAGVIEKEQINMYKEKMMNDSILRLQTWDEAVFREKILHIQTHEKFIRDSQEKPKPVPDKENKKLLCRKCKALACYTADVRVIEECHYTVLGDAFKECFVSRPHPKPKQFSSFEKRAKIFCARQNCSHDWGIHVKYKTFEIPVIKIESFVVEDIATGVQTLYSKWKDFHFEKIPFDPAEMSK
Description: MANT-nucleotide binding, tryptophan fluorescence FRET. The conditions noted are these: absence of RNA; full-length His-RIG-I; n = 4; read-out: Affinity (KD) to RIG-I. Here is the method: (§1) Binding of MANT-ATP and MANT-ATPγS to different full-length RIG-I mutants (1–925, N-terminal His-tag) was determined via Förster resonance energy transfer from RIG-I to MANT-ATP (Jena Bioscience, Jena, Germany). […] Fluorescence of MANT-ATP was measured in a TECAN M1000 microplate reader at λex/em = 290/448 nm, gain = 170 using an average of five reads per well. Assays were performed four times in independent experiments using the same protein purification batch. For determination of affinities fluorescence values were fitted to Equation (1) using R, where y is the fluorescence, [P] is the protein concentration, Bmax is the maximal fluorescence and KD is the dissociation constant. Fitting was performed globally on all available datasets. Representative values in figures are mean values ± SD.

Another test concerns the target T2, RIG-I E373Q (Homo sapiens, UniProt O95786, E373Q).
T2 construct: different full-length RIG-I mutants (1–925, N-terminal His-tag); made in house; host or cells: High Five (Trichoplusia ni) insect cells, baculovirus, pFBDM vector
T2 sequence (O95786 1-925 E373Q): T1 sequence (O95786 1-925) with E373Q
The description is as above. The conditions noted are these: n = 4. Here is the method:
as §1

Where a chain is given by its changes, count along the chain named. Like-named read-outs stand apart in the source and are kept apart here.

For MANT-ATP, the Kd at RIG-I was determined as 72 ± 13 µM; at RIG-I E373Q (absence of RNA, read-out: Affinity (KD) to RIG-I E373Q), 72 ± 13 µM; on RIG-I E373Q (presence of equimolar 14mer dsRNA, read-out: Affinity (KD) to RIG-I E373Q + RNA) it was 28 ± 5 µM.

The Kd is the free concentration of one partner at which half of the binding sites on the other are occupied at equilibrium, for simple one-to-one binding.

For the origin of these results see PMC6086658, “Unified mechanisms for self-RNA recognition by RIG-I Singleton-Merten syndrome variants” (eLife, 2018).
